Measurements: US7375220B2, “Method of treating diseases and conditions associated with an altered level of amyloid β peptides and new enolcarboxamide compounds” (Boehringer Ingelheim Vetmedica GmbH, priority 2004, dated 2008)

Tests used:
Aβ42 = conditions: according to table 3 of WO 01/78721; cited from earlier work

O=C(Nc1ccccc1C(F)(F)F)C1C(=O)N(Cc2ccc(F)cc2)S(=O)(=O)c2ccc(Cl)cc21 (centres unmarked) [Example 14, 6-Chloro-3,4-dihydro-2-(4-fluorobenzyl)-3-oxo-2H-1,2-benzothiazine-4-(2-trifluoromethyl)carboxanilide 1,1-dioxide]
melting point: 198 to 199 °C

CN1C(=O)C(C(=O)Nc2ccc(Cl)cc2)c2ccc3c(c2S1(=O)=O)CCCC3 (centres unmarked) [Example 13, 3,4,7,8,9,10-Hexahydro-2-methyl-3-oxo-2H-naphtho[2,1-e]-1,2-thiazine-4-(4-chloro)carboxanilide 1,1-dioxide]
melting point: 106 to 108 °C

O=C(Nc1cccc(C(F)(F)F)c1)C1C(=O)N(Cc2ccc(F)cc2)S(=O)(=O)c2ccc(Cl)cc21 (centres unmarked) [Example 15, 6-Chloro-3,4-dihydro-2-(4-fluorobenzyl)-3-oxo-2H-1,2-benzothiazine-4-(3-trifluoromethyl)carboxanilide 1,1-dioxide]
melting point: 183 to 184 °C

CN1C(C(=O)Nc2ccccn2)=C(O)c2ccccc2S1(=O)=O [piroxicam]
Aβ42 level (Aβ42): do not lower or even increase the Aβ42 level

Cc1cc(NC(=O)C2=C(O)c3ccccc3S(=O)(=O)N2C)no1 [isoxicam]
Aβ42 level (Aβ42): do not lower or even increase the Aβ42 level
